Counter-ions that a name gives are not always drawn. Like-named read-outs stand apart in the source and are kept apart here.

We go through 22 compounds from US11072581B2, “N-acyl-arylsulfonamide derivatives as aminoacyl-tRNA synthetase inhibitors” (Oxford Drug Design Limited, priority 2015, dated 2021).

What all share (type): biochemical
Assay [1] deals with T1, EcoLRS (leucyl-tRNA synthetase from Escherichia coli) (Escherichia coli, UniProt P07813).
T1 construct: made in house; host or cells: Escherichia coli M15
In words: aaRS aminoacylation assay (ATP consumption), EcoLRS. The method, then:
(§1) The compounds have been tested for antibacterial activity in vitro as aminoacyl-tRNA synthetases (aaRS) inhibitors following the following process.
(§2) Leucyl-, valyl- and isoleucyl-tRNA synthetases (LRS, VRS and IRS, respectively) from Escherichia coli (Eco) and Staphylococcus aureus (Sau).
(§3) Escherichia coli M15 cells transformed with plasmid pQE-60, or pQE-70, containing the open-reading frame sequence of one targeted aaRS were induced with 1 mM IPTG (Isopropyl β-D-1-thiogalactopyranoside) for 3 h at 37° C. Bacterial cells were harvested and lysed with 20 mM NaH2PO4 (pH 8.0), 200 mM NaCl, 10 mM imidazole and protease inhibitor cocktail (Roche). Pathogenic aaRS was purified by nickel affinity standard chromatography. Protein concentration was determined by spectrophotometry.
(§4) tRNA^Leu, tRNA^Val and tRNA^Ile from E. coli and S. aureus were transcribed in vitro for 4 h at 37° C. using T7 RNA polymerase. Transcription reaction contained 40 mM Tris-HCl (pH 8.0), 22 mM MgCl2, 1 mM spermidine, 5 mM DTT, 0.01% Triton X-100, 4 mM GTP, 4 mM ATP, 4 mM UTP, 4 mM CTP, 16 mM GMP, […] T7 RNA polymerase and 150 μg BstNI digested plasmid. Once finished, the reaction was applied on a 6% polyacrylamide-8 M urea denaturing gel to purify the transcribed tRNA and discard any impurities. Purified tRNA was quantified with Nanodrop 2000 (Thermo Scientific).
(§5) The aminoacylation reaction catalyzed by aminoacyl-tRNA synthetases (aaRS) takes place in two steps. In the first step, aaRS activates its cognate amino acid with ATP; and in the second step the activated amino acid is loaded to its corresponding tRNA. This reaction can be summarized as follows: ARS+aa+ATP=ARS-aa-AMP+PPi ARS-aa-AMP+tRNA=aa-tRNA+AMP+ARS [2] (ARS, Aminoacyl-tRNA synthetase; aa, amino acid; ARS-aa-AMP, enzyme-bound to aminoacyl-adenylate; aa-tRNA, aminoacyl-tRNA).
(§6) The activity of the pathogenic aaRSs was monitored by measuring the ATP consumption rate, since this consumption is directly proportional to the activity of the aaRS. If the tested compound, at a single point concentration of 50 μM, is inhibiting the aminoacylation reaction, there is a decrease in the ATP consumption, compared to the control reaction without compound, allowing the calculation of an inhibition ratio.
(§7) When the inhibition ratio for a given compound was above 80%, IC50 determination was performed with the same enzymatic assay (using the commercial kit Kinase RR from BioThema AB, Sweden) in the presence of serial dilutions of inhibitor. Known inhibitors of LRS, VRS or IRS were used as a positive control of the assay. The IC50 was calculated based on nonlinear regression analysis.

The target of assay [2] is T2, SauLRS (leucyl-tRNA synthetase from Staphylococcus aureus) (Staphylococcus aureus, UniProt Q2FXH2).
T2 construct: made in house; host or cells: Escherichia coli M15
T2 sequence (Q2FXH2 1-805): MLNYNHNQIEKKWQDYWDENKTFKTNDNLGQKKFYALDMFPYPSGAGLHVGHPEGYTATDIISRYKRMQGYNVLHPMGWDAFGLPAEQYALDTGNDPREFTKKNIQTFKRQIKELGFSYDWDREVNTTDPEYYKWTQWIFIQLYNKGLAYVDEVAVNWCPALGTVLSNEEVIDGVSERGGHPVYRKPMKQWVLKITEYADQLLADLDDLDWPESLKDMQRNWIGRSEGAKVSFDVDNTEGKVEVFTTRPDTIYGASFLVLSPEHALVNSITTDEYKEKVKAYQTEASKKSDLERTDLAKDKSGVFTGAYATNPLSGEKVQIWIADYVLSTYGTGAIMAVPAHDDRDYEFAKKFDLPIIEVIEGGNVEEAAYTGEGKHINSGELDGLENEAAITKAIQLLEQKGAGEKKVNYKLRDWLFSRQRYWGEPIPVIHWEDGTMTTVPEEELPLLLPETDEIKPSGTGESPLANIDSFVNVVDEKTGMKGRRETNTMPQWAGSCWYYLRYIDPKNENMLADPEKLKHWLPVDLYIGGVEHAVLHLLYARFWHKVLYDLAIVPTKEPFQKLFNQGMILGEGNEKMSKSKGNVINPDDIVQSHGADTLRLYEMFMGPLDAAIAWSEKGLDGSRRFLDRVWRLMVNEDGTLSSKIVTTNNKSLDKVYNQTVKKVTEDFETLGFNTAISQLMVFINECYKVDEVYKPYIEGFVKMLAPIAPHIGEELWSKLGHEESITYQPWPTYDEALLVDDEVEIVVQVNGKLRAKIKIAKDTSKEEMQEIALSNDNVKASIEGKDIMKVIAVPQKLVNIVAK
In words: aaRS aminoacylation assay (ATP consumption), SauLRS. The settings on record: i.a. = inactive at a concentration below 50 uM; for IC50: read-out: IC50 SauLRS. The method, then:
as §1, §2, §3, §4, §5, §6, §7

The target in assay [3] is T3, SauIRS (isoleucyl-tRNA synthetase from Staphylococcus aureus) (Staphylococcus aureus, UniProt P41972).
T3 construct: made in house; host or cells: Escherichia coli M15
T3 sequence (P41972 1-917): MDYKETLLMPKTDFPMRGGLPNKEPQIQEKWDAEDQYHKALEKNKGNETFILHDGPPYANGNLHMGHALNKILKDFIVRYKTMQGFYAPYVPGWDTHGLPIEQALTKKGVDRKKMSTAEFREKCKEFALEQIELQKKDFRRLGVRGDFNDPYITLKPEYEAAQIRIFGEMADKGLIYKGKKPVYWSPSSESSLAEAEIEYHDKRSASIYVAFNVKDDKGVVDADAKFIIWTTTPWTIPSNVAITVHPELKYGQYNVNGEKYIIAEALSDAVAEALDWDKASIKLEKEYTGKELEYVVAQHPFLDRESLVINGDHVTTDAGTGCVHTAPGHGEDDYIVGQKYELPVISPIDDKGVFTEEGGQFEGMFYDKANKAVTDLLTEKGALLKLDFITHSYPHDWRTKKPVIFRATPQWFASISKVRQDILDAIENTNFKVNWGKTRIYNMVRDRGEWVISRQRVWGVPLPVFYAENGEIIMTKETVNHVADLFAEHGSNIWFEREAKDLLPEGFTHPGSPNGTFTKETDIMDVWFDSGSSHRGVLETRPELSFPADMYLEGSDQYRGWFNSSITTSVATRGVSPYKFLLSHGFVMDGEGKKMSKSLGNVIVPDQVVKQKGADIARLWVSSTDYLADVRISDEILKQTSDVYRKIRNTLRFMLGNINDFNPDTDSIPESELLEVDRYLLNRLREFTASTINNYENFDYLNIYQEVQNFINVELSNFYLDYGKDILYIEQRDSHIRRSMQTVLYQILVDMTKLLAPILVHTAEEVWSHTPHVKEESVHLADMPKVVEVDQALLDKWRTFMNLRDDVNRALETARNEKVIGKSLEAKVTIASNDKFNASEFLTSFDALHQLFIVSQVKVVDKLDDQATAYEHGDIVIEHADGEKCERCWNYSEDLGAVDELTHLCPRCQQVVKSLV
Description: aaRS aminoacylation assay (ATP consumption), SauIRS. The following applies: i.a. = inactive at a concentration below 50 uM. The method, then:
as §1, §2, §3, §4, §5, §6, §7

Setting [4] is: i.a. = inactive at a concentration below 50 uM, read-out: IC50 EcoLRS.

T1 sequence (P07813 whole entry): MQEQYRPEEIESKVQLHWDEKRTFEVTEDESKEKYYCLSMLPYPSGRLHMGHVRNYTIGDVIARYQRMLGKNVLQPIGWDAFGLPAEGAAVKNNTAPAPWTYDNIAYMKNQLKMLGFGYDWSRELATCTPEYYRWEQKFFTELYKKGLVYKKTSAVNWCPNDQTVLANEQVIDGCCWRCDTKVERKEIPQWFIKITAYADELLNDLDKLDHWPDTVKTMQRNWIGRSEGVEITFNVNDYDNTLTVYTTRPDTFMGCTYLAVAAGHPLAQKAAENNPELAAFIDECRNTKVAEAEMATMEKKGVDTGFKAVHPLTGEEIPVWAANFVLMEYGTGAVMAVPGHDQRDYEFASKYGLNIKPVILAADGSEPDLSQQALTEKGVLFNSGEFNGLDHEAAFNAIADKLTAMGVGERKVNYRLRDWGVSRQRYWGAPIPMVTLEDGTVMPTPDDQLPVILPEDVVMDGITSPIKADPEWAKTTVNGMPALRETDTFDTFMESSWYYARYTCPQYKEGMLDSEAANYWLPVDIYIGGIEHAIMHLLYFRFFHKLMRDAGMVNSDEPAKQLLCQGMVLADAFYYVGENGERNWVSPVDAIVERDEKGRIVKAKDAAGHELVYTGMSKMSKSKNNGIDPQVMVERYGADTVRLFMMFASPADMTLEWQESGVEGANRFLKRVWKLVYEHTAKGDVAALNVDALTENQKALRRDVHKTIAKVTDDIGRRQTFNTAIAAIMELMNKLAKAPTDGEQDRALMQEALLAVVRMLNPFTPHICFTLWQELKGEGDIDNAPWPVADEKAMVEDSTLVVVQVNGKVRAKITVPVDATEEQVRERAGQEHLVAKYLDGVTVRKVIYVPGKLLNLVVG

The term IC50 denotes the concentration at which inhibition is half-maximal. In the case of `CC(C)C[C@H](N)C(=O)NS(=O)(=O)c1ccc2ccccc2c1` [Compound 5.14], the values for the IC50 in assay [1] (setting [4]) and in assay [2] were 65 nM and 1000 nM, respectively. The “IC50 SauIRS” value in assay [3] is “i.a”.
For the compound `CC(C)C[C@H](N)C(=O)NS(=O)(=O)c1cccc2cccnc12` [Compound 5.19], the IC50 in assay [1] was found to be 780 nM; in assay [2], 16800 nM. Further, the “IC50 SauIRS” value in assay [3] is “i.a”.
Turning to `Cc1cc(-c2cccc(S(=O)(=O)NC(=O)[C@@H](N)CC3CC3)c2)nc(N)n1` [Compound 5.30], half-maximal inhibition in assay [1] (IC50) was put at 14000 nM. Further, the “IC50 SauLRS” value in assay [2] is “i.a”. In addition, in assay [3], the “IC50 SauIRS” value is given as “i.a”.
For the compound `Cc1cc(-c2cccc(S(=O)(=O)NC(=O)[C@@H](N)CC3CCCCC3)c2)nc(N)n1` [Compound 5.34], the “IC50 EcoLRS” value in assay [1] (i.a. = inactive at a concentration below 50 uM) is “i.a”. Also, the “IC50 SauLRS” value in assay [2] is given as “i.a”. The “IC50 SauIRS” value in assay [3] was “i.a”.
Take `CC(C)C[C@H](N)C(=O)NS(=O)(=O)c1ccc(-c2ccccc2)cc1` [Compound 5.11]: the IC50 in assay [1] was 27600 nM; in assay [2] it was 11300 nM. Also, the “IC50 SauIRS” value in assay [3] is given as “i.a”.
For `CC(C)C[C@H](N)C(=O)NS(=O)(=O)c1cccc(-c2ncnc(N)n2)c1` [Compound 5.48] the same measures were 3.4 nM, 530 nM and “i.a”.
For `CC(C)C[C@H](N)C(=O)NS(=O)(=O)c1cccc(Cl)c1` [Compound 5.4] the same measures were 31 nM, 920 nM and “i.a”.
As for `CC(C)C[C@H](N)C(=O)NS(=O)(=O)c1cccc2c1CNCC2` [Compound 5.26, (S)-2-amino-4-methyl-N-((1,2,3,4-tetrahydroisoquinolin-8-yl)sulfonyl) pentanamide trifluoroacetate], the IC50 in assay [1] worked out at 176 nM; in assay [2] it was 20000 nM. The “IC50 SauIRS” value in assay [3] is recorded as “i.a”.
For `CNc1cc(-c2cccc(S(=O)(=O)NC(=O)[C@@H](N)CC(C)C)c2)nc(N)n1` [Compound 5.27] the same measures were 51 nM, 260 nM and “i.a”.
Consider `CC(C)C[C@H](N)C(=O)NS(=O)(=O)c1cccc(-c2ccccc2)c1` [Compound 5.9], for which the figures for the IC50 in assay [1] (setting [4]) and in assay [2] were 32 nM and 650 nM, respectively. For the same compound, the “IC50 SauIRS” value in assay [3] is recorded as “i.a”.
Regarding `Cc1cc(-c2cccc(S(=O)(=O)NC(=O)[C@@H](N)CC(C)C)c2)nc(N)n1` [Compound 5.35, (S)-2-amino-N-((3-(2-amino-6-methylpyrimidin-4-yl)phenyl)sulfonyl)-4-methylpentanamide], the values for the IC50 in assay [1] and in assay [2] were 14 nM and 4340 nM, respectively. Also, the “IC50 SauIRS” value in assay [3] is given as “i.a”.
On the same counts, the results for `CSc1cc(-c2cccc(S(=O)(=O)NC(=O)[C@@H](N)CC(C)C)c2)nc(N)n1` [Compound 5.29] are 21 nM, 1200 nM and “i.a”.
On the same counts, the results for `CC(C)C[C@H](N)C(=O)NS(=O)(=O)c1cccc(-c2nc(N)nc3nc[nH]c23)c1` [Compound 5.38] are 84 nM, 1110 nM and “i.a”.
For `CCCCc1ccc(S(=O)(=O)NC(=O)[C@@H](N)CC(C)C)cc1` [Compound 5.7] the same measures were 668 nM, 4900 nM and “i.a”.
Regarding `CC(C)C[C@H](N)C(=O)NS(=O)(=O)c1cccc(-c2cc(N)nc(N)n2)c1` [Compound 5.45], the IC50 in assay [1] was found to be 20 nM; in assay [2], 720 nM. Also, in assay [3], the “IC50 SauIRS” value is recorded as “i.a”.
On the same counts, the results for `CCc1cc(-c2cccc(S(=O)(=O)NC(=O)[C@@H](N)CC(C)C)c2)nc(N)n1` [Compound 5.47] are 11 nM, 2150 nM and “i.a”.
With `CC(C)C[C@H](N)C(=O)NS(=O)(=O)c1cccc(-c2ccnc(N)n2)c1` [Compound 5.37], the IC50 in assay [1] (setting [4]) was 54 nM; in assay [2], 2180 nM. The “IC50 SauIRS” value in assay [3] is “i.a”.
As to `Cc1cc(-c2cccc(S(=O)(=O)NC(=O)[C@@H](N)C3CC3)c2)nc(N)n1` [Compound 5.33], the “% at single point concentration (inhibition ratio), EcoLRS” value in assay [1] (@50 μM compound) was determined as 40%@50. Also, the “IC50 SauLRS” value in assay [2] is given as “i.a”. Moreover, the “IC50 SauIRS” value in assay [3] was “i.a”.
`CC(C)C[C@H](N)C(=O)NS(=O)(=O)c1ccccc1F` [Compound 5.6]: the results for the IC50 in assay [1] and in assay [2] were 233 nM and 17000 nM, respectively. In addition, the “IC50 SauIRS” value in assay [3] is “i.a”.
On the same counts, the results for `CC(C)C[C@H](N)C(=O)NS(=O)(=O)c1cccc(-c2ccnc(O)n2)c1` [Compound 5.50] are 63 nM, 13900 nM and “i.a”.
As to `COc1ccc2cc(S(=O)(=O)NC(=O)[C@@H](N)CC(C)C)ccc2c1` [Compound 5.17], the values for the IC50 in assay [1] and in assay [2] were 920 nM and 2000 nM, respectively. The “IC50 SauIRS” value in assay [3] was “i.a”.
Consider `CC(C)C[C@H](N)C(=O)NS(=O)(=O)c1cccc2c(N(C)C)cccc12` [Compound 5.16, (S)-2-amino-N-((5-(dimethylamino)naphthalen-1-yl)sulfonyl)-4-methylpentanamide hydrochloride], for which the IC50 in assay [1] was found to be 4100 nM. The “IC50 SauLRS” value in assay [2] is recorded as “i.a”. In assay [3], the “IC50 SauIRS” value is “i.a”.
